Experiments:
T47D cells = assay: Cell-based assay: anti-proliferative activity, Cell Counting Kit-8, 72 hours (T47D); details: Homo sapiens, T47D, 72 h
How it was run: (§1)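 First, lysates underwent western blotting with anti-MELK antibody to establish expression. Next, cells went into 96-well plates. Then candidate inhibitors were added. Finally, viability was determined by CCK-8 at 72 h and IC50 computed.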

DU4475 cells [1] = assay: Cell-based assay: anti-proliferative activity, Cell Counting Kit-8, 72 hours (DU4475); details: Homo sapiens, DU-4475, 72 h
A549 cells = assay: Cell-based assay: anti-proliferative activity, Cell Counting Kit-8, 72 hours (A549); details: Homo sapiens, A549, 72 h, 72 hours
How it was run: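 A549 cells were seeded in 96-well plates and exposed to candidate inhibitors for 72 hours. Cell growth was then measured with Cell Counting Kit-8, and IC50 values were calculated from the resulting growth data.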

MELK = MELK (Homo sapiens, UniProt Q14680); assay: Kinase assay: MELK activity, phosphorylation of FITC-labeled histone H3 peptide measured by IMAP fluorescence polarization; type: biochemical; details: read-out: IC50 (μM) (kinase assay)
Sequence of MELK (Q14680 whole entry, looked up): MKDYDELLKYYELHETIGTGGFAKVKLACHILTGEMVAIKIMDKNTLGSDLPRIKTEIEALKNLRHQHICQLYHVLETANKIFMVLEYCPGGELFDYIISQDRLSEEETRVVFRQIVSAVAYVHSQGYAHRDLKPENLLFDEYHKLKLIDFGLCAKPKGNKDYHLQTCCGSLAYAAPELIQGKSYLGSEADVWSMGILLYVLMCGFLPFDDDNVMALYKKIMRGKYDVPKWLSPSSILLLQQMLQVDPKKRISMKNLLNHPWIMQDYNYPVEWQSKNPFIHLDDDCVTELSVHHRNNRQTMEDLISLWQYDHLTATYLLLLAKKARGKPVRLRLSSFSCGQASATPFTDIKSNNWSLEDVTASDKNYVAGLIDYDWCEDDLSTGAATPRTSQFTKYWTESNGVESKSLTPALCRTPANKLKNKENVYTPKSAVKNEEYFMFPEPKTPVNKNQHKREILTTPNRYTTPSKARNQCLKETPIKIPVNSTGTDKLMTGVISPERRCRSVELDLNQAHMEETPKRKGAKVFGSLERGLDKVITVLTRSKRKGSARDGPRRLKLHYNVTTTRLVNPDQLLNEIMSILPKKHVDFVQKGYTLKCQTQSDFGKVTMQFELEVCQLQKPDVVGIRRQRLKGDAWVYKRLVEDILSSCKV
How it was run: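 Kinase reactions ran with or without test compound (final DMSO 1%) on a fluorescein-tagged H3 peptide. Progressive binding solution was added to terminate them. After a half-hour room-temperature incubation, polarization was measured.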

HT-1197 cells = assay: Cell-based assay: anti-proliferative activity, Cell Counting Kit-8, 72 hours (HT-1197, negative control without MELK expression); details: Homo sapiens, HT1197, 72 h, 72 hours
How it was run: as §1

DU4475 cells [2] = assay: Cell-based assay: anti-proliferative activity, Cell Counting Kit-8, 72 hours (DU4475); details: Homo sapiens, DU-4475, 72 h; remark: listed apart in the source
[3] = HT1197 cells (negative control, no MELK expression)
[4] = HT1197 cells (negative control)

Row | Structure (SMILES) | IC50 (T47D cells) [µM] | IC50 (DU4475 cells [1]) [µM] | IC50 (A549 cells) [µM] | IC50 (MELK) [µM] | IC50 (HT-1197 cells; [3]) [µM] | IC50 (DU4475 cells [2]) [µM] | IC50 (HT-1197 cells; [4]) [µM]
1 | CC(=O)c1cnc2ccc(-c3cc(Cl)c(O)c(Cl)c3)cc2c1N[C@H]1CC[C@H](CN2CCC(O)C2)CC1 (stereo partly drawn) [Example 753] | 0.13 | 0.057 | 0.37 | 0.0015 | 71 |  | 
2 | CC(=O)c1cnc2ccc(-c3cc(Cl)c(O)c(Cl)c3)cc2c1Nc1ccc(NCCN(C)C)nc1 [Example 758, 1-(6-(3,5-dichloro-4-hydroxyphenyl)-4-(6-(2-(dimethylamino)ethylamino)pyridin-3-ylamino)quinolin-3-yl)ethanone] | 0.15 | 0.055 | 0.22 | 0.0053 | 24 |  | 
3 | COc1cc(-c2ccc3ncc(C(C)=O)c(N[C@@H]4CCC[C@@H](CN(C)C)C4)c3c2)cc(Cl)c1O [Example 752, 1-(6-(3-chloro-4-hydroxy-5-methoxyphenyl)-4-((1R,3R)-3-((dimethylamino)methyl)cyclohexylamino)quinolin-3-yl)ethanone] | 0.18 | 0.17 | 0.2 | 0.001 | 3.4 |  | 
4 | CCC(=O)c1cnc2ccc(-c3cc(Cl)c(O)c(Cl)c3)cc2c1Nc1ccc(N2CCC(N)C2)nc1 (stereo not drawn) [Example 761, 1-(4-(6-(3-aminopyrrolidin-1-yl)pyridin-3-ylamino)-6-(3,5-dichloro-4-hydroxyphenyl)quinolin-3-yl)propan-1-one] | 0.031 | 0.022 | 0.053 | 0.0026 | 1.5 |  | 
5 | CCC(=O)c1cnc2ccc(-c3cc(F)c(O)c(Cl)c3)cc2c1N[C@H]1CC[C@H](N(C)C)CC1 [Example 757, 1-(6-(3-chloro-5-fluoro-4-hydroxyphenyl)-4-((trans-4-(dimethylamino)cyclohexyl)amino)quinolin-3-yl)propan-1-one] | 0.064 | 0.069 | 0.15 | 0.0062 | 0.76 |  | 
6 | CC(=O)c1cnc2ccc(-c3cc(F)c(O)c(Cl)c3)cc2c1N[C@@H]1CCC[C@@H](CN(C)C)C1 [Example 751, 1-(6-(3-chloro-5-fluoro-4-hydroxyphenyl)-4-((1R,3R)-3-((dimethylamino)methyl)cyclohexylamino)quinolin-3-yl)ethanone] | 0.32 | 0.29 | 0.58 | 0.0067 | 1.7 |  | 
7 | CC(=O)c1cnc2ccc(-c3cc(Cl)c(O)c(Cl)c3)cc2c1N[C@@H]1CCC[C@@H](CN(C)C)C1 [Example 750, 1-(6-(3,5-dichloro-4-hydroxyphenyl)-4-((1R,3R)-3-((dimethylamino)methyl)cyclohexylamino)quinolin-3-yl)ethanone] | 0.2 | 0.19 | 0.39 | 0.0023 | 1.7 |  | 
8 | CC(=O)c1cnc2ccc(-c3cc(F)c(O)c(Cl)c3)cc2c1Nc1cccc(CCN(C)C)c1 [Example 759, 1-(6-(3-chloro-5-fluoro-4-hydroxyphenyl)-4-(3-(2-(dimethylamino)ethyl)phenylamino)quinolin-3-yl)ethanone] | 0.67 | 0.2 | 0.42 | 0.013 | 10 |  | 
9 | CCC(=O)c1cnc2ccc(-c3cc(Cl)c(O)c(OC)c3)cc2c1N[C@H]1CC[C@H](N(C)C)CC1 [Example 755] | 0.35 | 0.21 | 0.34 | 0.0018 | 3.4 |  | 
10 | CN(C)CCNc1ccc(Nc2c(C(=O)C3CC3)cnc3ccc(-c4cc(Cl)c(O)c(Cl)c4)cc23)cn1 [Example 747, cyclopropyl(6-(3,5-dichloro-4-hydroxyphenyl)-4-(6-(2-(dimethylamino)ethylamino)pyridin-3-ylamino)quinolin-3-yl)methanone] | 0.16 | 0.043 | 0.091 | 0.0043 | 2.6 |  | 
11 | COc1cc(-c2ccc3ncc(C(=O)C4CC4)c(Nc4ccc(C(C)(C)N)cc4)c3c2)cc(Cl)c1O [Example 603, (4-(4-(2-aminopropan-2-yl)phenylamino)-6-(3-chloro-4-hydroxy-5-methoxyphenyl)quinolin-3-yl)(cyclopropyl)methanone] | 0.52 |  | 0.64 | 0.0036 |  | 0.37 | 1.7
12 | COc1cc(-c2ccc3ncc(C(=O)C4CC4)c(Nc4cccc(CN(C)C)c4)c3c2)cc(Cl)c1O [Example 622, (6-(3-chloro-4-hydroxy-5-methoxyphenyl)-4-(3-((dimethylamino)methyl)phenylamino)quinolin-3-yl)(cyclopropyl)methanone] | 1.1 |  | 0.43 | 0.0037 |  | 0.32 | 5.5

Reference: patent publication US9120749B2, “Quinoline derivatives and MELK inhibitors containing the same” (ONCOTHERAPY SCIENCE, INC., priority 2010, dated 2015)
